Test [1] has as its target T1, EGFR T790M L858R (Homo sapiens, UniProt P00533, L858R/T790M).
T1 construct: EGFR T790M L858R (amino acids 696-1022)
Description: Release of effector protein ligand from heterobifunctional compounds, EGFR T790M L858R. It counts as biochemical. The note with it: detected A1-3. The method, then: Exemplary heterobifunctional compounds were evaluated for the ability to release an effector protein ligand in the presence of KRAS G12C, BTK, or EGFR T790M L858R target proteins.
Samples for mass spectrometry for KRAS G12C, BTK, and EGFR T790M L858R were prepared as described above for the intact mass spectrometry target engagement experiment, respectively, except rather than flash-freezing, 20 μL of sample was quenched with 50 μL of 100% acetonitrile. As well, a buffer-only control was used to detect latent release of effector protein ligand analyte. Internal standard (IS) solution consisted of 200 ng/mL propranolol and 50 ng/mL diclofenac in methanol:water 1:1 (v/v). A 4-point calibration curve (calibration standard (CS)) consisting of each analyte was made at final concentrations of 3 nM, 30 nM, 300 nM, and 3000 nM. Unknown samples were diluted such that the unknown analyte concentration was in the linear range of the calibration curve.
Samples for all proteins were prepared and analyzed from the following:
Samples were further analyzed with AB Sciex Triple Quad 5500 system coupled with Shimadzu Prominence HPLC.

Test [2] deals with HEK293 cells (ATCC CRL-1573). The test can be described thus: Cellular growth inhibition assay, HEK293 cells (Example 16). The format is cell-based. The note with it: Homo sapiens, 72 hours, CellTiter-Glo 2.0. In general terms: Cellular ATP, detected with luciferase, serves as a proxy for viable cell number.
Test [3] addresses T2, EGFR T790M/L858R kinase domain (Homo sapiens, UniProt P00533, L858R/T790M).
T2 construct: EGFR (amino acids 696-1022, T790M, L858R); expressed in transfected cells; host or cells: HEK293, lentiviral transduction, puromycin selection
Description: EGFR cellular target engagement assay (HEK293 cells stable for EGFR T790M, L858R). The note with it: 6 hours, read-out: TE50 (the source's name). The format is cell-based. Here is the method: HEK293 cells were cultured in DMEM (Gibco 11995), supplemented with 10% Heat-inactivated FBS (Gibco A38400-01) and 1% Penicillin/Streptomycin (Gibco 15140-122) at 37° C. with 5% CO2 in a humidified tissue culture incubator. Cells were made stable for EGFR (amino acids 696-1022, T790M, L858R) by lentiviral transduction, followed by selection with 1 μg/ml Puromycin Dihydrochloride (Thermo A1113803). Cells were seeded at 30,000 cells/ml in 0.1 ml of complete media in Poly-D-lysine-treated 96-well plates and incubated overnight. Cells were treated with increasing concentrations of compound and let incubate at 37C and 5% CO2 for 6 hours, after which media was aspirated, washed with 1×PBS and cells were lysed in RIPA Lysis and Extraction Buffer (Thermo 89901) supplemented with 5 mM MgCl2, Protease and Phosphatase inhibitor cocktail (Thermo 1861281), and Universal Nuclease (Thermo 88700). Plates with RIPA were shaken at 4° C. at 600 rpm for 15 min. After shaking samples, they were collected and spun down at 21,000 g for 15 min at 4° C. Following centrifugation, […] of lysate was added to Laemmli Sample Buffer (Bio-Rad 1610747) plus 10% beta-mercaptoethanol, boiled for 15 minutes at 65° C. and loaded onto 4-20% Mini-PROTEAN TGX™ Precast Protein Gels (Bio-Rad). Protein was transferred to a nitrocellulose membrane (Thermo LC2000) using the iBlot 2 Dry Blotting System (Thermo). After transfer, membranes were washed in 1× TBST (Bioland Scientific LLC TBST0103) 3× for 5 min. Following the wash, blocking buffer (Rockland MB-070) was added for 1 hour at room temperature. Primary antibodies against EGFR (Cell Signaling Technology 3197) and actin (Cell Signaling Technology 3700S) were added overnight at 4° C. Membranes were then washed again 3× for 5 min in 1× TBST. Secondary antibodies (LI-COR 926-68072 and 926-68073) were added and shaken for 1 hr at room temperature. Membranes were then washed 3× for 5 min in 1×TBST and developed. Membranes were placed on an Odyssey imager (LI-COR).

Test [4] deals with HeLa cells (ATCC CCL-2). Description: Cellular growth inhibition assay, HeLa cells (Example 16). It counts as cell-based. The note with it: Homo sapiens, 72 hours, CellTiter-Glo 2.0.
Test [5] has as its target T3, EGFR WT (amino acids 669-1011) (Homo sapiens, UniProt P00533).
T3 construct: purchased Eurofins Discovery (KdELECT); host or cells: bacteria (E. coli BL21-derived, T7 phage)
The test can be described thus: KdELECT binding assay, EGFR WT. Here is the method: (§1) Exemplary compounds were tested for ability to bind to EGFR WT (amino acids 669-1011, Accession Number NP_005219.2) or EGFR T790M, L858R (amino acids 669-1011 Accession Number NP_005219.2) expressed from bacteria or mammalian cells, respectively. Compounds were tested using the KdELECT assay at Eurofins Discovery.
(§2) Kinase-tagged T7 phage strains were prepared in an E. coli host derived from the BL21 strain. E. coli were grown to log-phase and infected with T7 phage and incubated with shaking at 32° C. until lysis. The lysates were centrifuged and filtered to remove cell debris. The remaining kinases were produced in HEK-293 cells and subsequently tagged with DNA for qPCR detection. Streptavidin-coated magnetic beads were treated with biotinylated small molecule ligands for 30 minutes at room temperature to generate affinity resins for kinase assays. The liganded beads were blocked with excess biotin and washed with blocking buffer (SeaBlock (Pierce), 1% BSA, 0.05% Tween 20, 1 mM DTT) to remove unbound ligand and to reduce non-specific binding. Binding reactions were assembled by combining kinases, liganded affinity beads, and test compounds in 1x binding buffer (20% SeaBlock, 0.17× PBS, 0.05% Tween 20, 6 mM DTT). Test compounds were prepared as 111× stocks in 100% DMSO. Kd values were determined using an 11-point 3-fold compound dilution series with three DMSO control points. All compounds for Kd measurements are distributed by acoustic transfer (non-contact dispensing) in 100% DMSO. The compounds were then diluted directly into the assays such that the final concentration of DMSO was 0.9%. All reactions performed in polypropylene 384-well plate. Each was a final volume of 0.02 mL. The assay plates were incubated at room temperature with shaking for 1 hour and the affinity beads were washed with wash buffer (1× PBS, 0.05% Tween 20). The beads were then re-suspended in elution buffer (1× PBS, 0.05% Tween 20, 0.5 μM nonbiotinylated affinity ligand) and incubated at room temperature with shaking for 30 minutes. The kinase concentration in the eluates was measured by qPCR.

In test [6] the target is T4, EGFR T790M, L858R (amino acids 669-1011) (Homo sapiens, UniProt P00533, L858R/T790M).
T4 construct: purchased Eurofins Discovery (KdELECT); host or cells: mammalian cells (HEK-293)
The test can be described thus: KdELECT binding assay, EGFR T790M, L858R. The method, then:
as §1, §2

Test [7] addresses T5, GSPT1 (Homo sapiens, UniProt P15170+Q96SW2).
T5 construct: host or cells: HEK293 LgBiT / GSPT1 HiBiT CRISPR knock-in
Description: GSPT1 HiBiT degradation assay. It counts as cell-based. Conditions: HEK293 LgBiT GSPT1 HiBiT cells, 6 hours. The text has this:
Promega developed a HEK293 cell line that constitutively expresses LgBiT protein and GSPT1_HiBiT fusion protein. When both proteins are present, the HiBiT portion of the fusion protein combines with LgBiT protein to form a functional luciferase enzyme. Endurazine, a cell permeable small molecule, is converted by cellular esterases into furimazine, which the luciferase enzyme uses as a substrate to generate luminescence. When GSPT1 is degraded, the HiBit is also degraded. This prevents formation of fully functional luciferase, leading to a loss in luminescence. GSPT1 degradation therefore correlates with a decrease in luminescence and can be measured continuously over time. The concentration of compound at which 50% GSPT1 degradation occurs (DC50) may be calculated using this system.
HEK293 LgBiTGSPT1 HiBiT CRISPR Knock-in cells were cultured in DMEM Media supplemented with 10% Heat-inactivated FBS, 1% Penicillin/Streptomycin, 200 μg/mL hygromycin and stored in a humidified incubator set at 37° C. and 5% CO2. 18-24 hours prior to compound treatment, cells were seeded at 1000 cells/well in a 384-well tissue culture-treated white plates in 25 μL media lacking selection for 18-24 hours. The plates were spun at 300 g for 30 seconds and stored in the incubator overnight. After 24 hours, compounds are titrated in DMSO and added to media supplemented with endurazine substrate. A 25 μL aliquot of 2× compound/endurazine in media is then added to the 384-well microplate with seeded cells. (Endurazine is used at a final concentration of 0.5×). The plate was spun at 300 g for 30 seconds and stored in the incubator. After 6 hours, the plate was read on a Perkin Elmer MultiMode Plate Reader Envision 2105 to measure luminescence signal. Data were plotted in Prism (Graphpad) and the concentration of compound at which 50% GSPT1 degradation occurs (DC50) was calculated.
(With HiBiT, luminescence reflects the tagged protein that the partner subunit can reach.)

Test [8] concerns the target T6, CCNK (Homo sapiens, UniProt O75909+Q16531+Q9NYV4).
T6 construct: expressed in transfected cells; host or cells: HEK293 LgBiT cells (Promega), lentiviral transduction, puromycin selection
Description: CCNK HiBiT degradation assay. It counts as cell-based. The note with it: HEK293 LgBiT/CCNK HiBiT cells, 6 hours. Here is the method: HEK293 LgBiT cells (Promega) were cultured in DMEM (Gibco 11995), supplemented with 10% Heat-inactivated FBS (Gibco A38400-01) and 1% Penicillin/Streptomycin (Gibco 15140-122) and 200 μg/ml Hygromycin B (Gibco 10-687-010) at 37° C. with 5% CO2 in a humidified tissue culture incubator. Cells were made stable for CCNK fused to a C-terminal HiBiT peptide by lentiviral transduction, followed by selection with 1 μg/ml Puromycin Dihydrochloride (Thermo A1113803). HEK293 LgBiT/CCNK HiBiT cells were seeded at 3000 cells/well in 384-well, tissue culture-treated white plates (Perkin Elmer 6007680) in 25 μL media lacking selection for 18-24 hours. Plates were spun at 300 g for 30 seconds and stored in the incubator overnight. After 24 hours, compounds were titrated in DMSO and added to media supplemented with Endurazine Substrate (Promega N2570). A 25 ul aliquot of 2× compound/endurazine in media were then added to the 384-well microplate with seeded cells. (Endurazine was used at a final concentration of 0.5×). The plate was spun at 300 g for 30 seconds and stored in the incubator. After 6 hours the plate was read on Envision MultiMode Plate Reader 2105 (Perkin Elmer) to measure luminescence signal. Data were plotted in Prism (Graphpad) and the concentration of compound at which 50% CCNK degradation occurs (DC50) was calculated.

The structures appear in SMILES notation. Some results are limits rather than exact numbers.

T5 sequence (P15170 whole entry): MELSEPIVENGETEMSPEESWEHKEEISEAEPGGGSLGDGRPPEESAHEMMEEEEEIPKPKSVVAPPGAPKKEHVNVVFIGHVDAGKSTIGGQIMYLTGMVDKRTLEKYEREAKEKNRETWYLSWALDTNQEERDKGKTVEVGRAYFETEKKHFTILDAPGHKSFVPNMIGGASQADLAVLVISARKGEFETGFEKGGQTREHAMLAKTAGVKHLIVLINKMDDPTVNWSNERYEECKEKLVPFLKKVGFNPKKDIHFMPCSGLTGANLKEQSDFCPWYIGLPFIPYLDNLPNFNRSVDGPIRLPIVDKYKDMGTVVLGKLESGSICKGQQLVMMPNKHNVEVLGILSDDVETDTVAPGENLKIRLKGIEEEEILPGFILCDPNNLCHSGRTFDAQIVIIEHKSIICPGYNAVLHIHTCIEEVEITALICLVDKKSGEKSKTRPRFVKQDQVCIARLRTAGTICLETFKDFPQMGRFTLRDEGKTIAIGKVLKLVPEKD
T5 sequence (Q96SW2 whole entry): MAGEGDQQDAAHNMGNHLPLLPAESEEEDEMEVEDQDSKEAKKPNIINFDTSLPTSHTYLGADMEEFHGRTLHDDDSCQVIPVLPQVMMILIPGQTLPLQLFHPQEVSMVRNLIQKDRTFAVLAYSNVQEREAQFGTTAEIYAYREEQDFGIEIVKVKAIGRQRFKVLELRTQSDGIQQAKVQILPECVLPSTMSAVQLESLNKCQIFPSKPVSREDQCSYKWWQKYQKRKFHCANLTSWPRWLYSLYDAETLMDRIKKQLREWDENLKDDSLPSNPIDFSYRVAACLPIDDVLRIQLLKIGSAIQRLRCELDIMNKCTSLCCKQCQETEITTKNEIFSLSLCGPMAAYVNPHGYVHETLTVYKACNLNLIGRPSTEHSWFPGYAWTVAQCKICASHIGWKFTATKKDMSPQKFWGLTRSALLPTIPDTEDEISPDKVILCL
T5 sequence (Q16531 whole entry partner): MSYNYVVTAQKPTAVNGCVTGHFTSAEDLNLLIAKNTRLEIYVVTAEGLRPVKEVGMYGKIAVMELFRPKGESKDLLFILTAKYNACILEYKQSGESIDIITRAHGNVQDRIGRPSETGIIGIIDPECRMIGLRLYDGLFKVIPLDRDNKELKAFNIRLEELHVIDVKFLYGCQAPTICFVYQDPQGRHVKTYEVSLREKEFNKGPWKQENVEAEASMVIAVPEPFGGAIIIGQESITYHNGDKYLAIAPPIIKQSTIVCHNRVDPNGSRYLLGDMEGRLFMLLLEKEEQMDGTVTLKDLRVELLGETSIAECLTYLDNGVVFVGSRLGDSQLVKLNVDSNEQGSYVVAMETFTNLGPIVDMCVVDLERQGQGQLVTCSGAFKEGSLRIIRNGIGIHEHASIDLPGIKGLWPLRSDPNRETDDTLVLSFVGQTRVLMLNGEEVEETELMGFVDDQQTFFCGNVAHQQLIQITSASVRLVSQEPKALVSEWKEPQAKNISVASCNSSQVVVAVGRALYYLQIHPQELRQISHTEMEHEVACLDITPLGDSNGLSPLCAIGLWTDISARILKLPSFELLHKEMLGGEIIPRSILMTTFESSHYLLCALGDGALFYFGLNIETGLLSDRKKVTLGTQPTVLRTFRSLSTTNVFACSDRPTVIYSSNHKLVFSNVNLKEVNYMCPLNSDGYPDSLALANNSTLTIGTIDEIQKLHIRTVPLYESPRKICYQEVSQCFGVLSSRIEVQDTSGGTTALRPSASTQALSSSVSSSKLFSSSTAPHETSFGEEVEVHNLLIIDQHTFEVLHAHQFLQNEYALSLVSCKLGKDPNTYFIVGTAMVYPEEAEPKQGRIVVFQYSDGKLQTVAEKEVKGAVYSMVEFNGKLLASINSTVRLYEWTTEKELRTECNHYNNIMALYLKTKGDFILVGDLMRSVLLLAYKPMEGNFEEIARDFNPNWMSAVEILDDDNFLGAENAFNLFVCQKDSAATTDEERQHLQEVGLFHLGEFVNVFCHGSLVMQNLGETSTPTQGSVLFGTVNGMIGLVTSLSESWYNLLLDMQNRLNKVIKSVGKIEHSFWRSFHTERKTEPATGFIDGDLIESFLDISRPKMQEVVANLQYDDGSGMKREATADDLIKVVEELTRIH
T6 sequence (O75909 whole entry, species assumed): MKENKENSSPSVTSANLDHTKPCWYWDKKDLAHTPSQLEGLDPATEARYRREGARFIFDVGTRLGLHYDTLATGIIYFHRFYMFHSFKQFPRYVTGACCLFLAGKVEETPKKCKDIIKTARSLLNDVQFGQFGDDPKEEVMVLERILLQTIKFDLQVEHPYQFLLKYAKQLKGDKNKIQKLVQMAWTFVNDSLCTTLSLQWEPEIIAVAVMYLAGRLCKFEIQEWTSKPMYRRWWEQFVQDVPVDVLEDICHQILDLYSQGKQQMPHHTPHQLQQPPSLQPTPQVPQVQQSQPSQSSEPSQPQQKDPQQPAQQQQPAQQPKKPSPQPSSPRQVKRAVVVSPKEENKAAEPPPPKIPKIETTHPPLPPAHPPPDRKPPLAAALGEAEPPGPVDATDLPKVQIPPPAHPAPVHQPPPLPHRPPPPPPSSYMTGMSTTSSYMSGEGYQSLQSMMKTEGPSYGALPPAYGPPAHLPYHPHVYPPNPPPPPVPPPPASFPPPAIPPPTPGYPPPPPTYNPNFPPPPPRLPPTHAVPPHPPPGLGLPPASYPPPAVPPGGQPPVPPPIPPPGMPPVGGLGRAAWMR
T6 sequence (Q9NYV4 whole entry, species assumed): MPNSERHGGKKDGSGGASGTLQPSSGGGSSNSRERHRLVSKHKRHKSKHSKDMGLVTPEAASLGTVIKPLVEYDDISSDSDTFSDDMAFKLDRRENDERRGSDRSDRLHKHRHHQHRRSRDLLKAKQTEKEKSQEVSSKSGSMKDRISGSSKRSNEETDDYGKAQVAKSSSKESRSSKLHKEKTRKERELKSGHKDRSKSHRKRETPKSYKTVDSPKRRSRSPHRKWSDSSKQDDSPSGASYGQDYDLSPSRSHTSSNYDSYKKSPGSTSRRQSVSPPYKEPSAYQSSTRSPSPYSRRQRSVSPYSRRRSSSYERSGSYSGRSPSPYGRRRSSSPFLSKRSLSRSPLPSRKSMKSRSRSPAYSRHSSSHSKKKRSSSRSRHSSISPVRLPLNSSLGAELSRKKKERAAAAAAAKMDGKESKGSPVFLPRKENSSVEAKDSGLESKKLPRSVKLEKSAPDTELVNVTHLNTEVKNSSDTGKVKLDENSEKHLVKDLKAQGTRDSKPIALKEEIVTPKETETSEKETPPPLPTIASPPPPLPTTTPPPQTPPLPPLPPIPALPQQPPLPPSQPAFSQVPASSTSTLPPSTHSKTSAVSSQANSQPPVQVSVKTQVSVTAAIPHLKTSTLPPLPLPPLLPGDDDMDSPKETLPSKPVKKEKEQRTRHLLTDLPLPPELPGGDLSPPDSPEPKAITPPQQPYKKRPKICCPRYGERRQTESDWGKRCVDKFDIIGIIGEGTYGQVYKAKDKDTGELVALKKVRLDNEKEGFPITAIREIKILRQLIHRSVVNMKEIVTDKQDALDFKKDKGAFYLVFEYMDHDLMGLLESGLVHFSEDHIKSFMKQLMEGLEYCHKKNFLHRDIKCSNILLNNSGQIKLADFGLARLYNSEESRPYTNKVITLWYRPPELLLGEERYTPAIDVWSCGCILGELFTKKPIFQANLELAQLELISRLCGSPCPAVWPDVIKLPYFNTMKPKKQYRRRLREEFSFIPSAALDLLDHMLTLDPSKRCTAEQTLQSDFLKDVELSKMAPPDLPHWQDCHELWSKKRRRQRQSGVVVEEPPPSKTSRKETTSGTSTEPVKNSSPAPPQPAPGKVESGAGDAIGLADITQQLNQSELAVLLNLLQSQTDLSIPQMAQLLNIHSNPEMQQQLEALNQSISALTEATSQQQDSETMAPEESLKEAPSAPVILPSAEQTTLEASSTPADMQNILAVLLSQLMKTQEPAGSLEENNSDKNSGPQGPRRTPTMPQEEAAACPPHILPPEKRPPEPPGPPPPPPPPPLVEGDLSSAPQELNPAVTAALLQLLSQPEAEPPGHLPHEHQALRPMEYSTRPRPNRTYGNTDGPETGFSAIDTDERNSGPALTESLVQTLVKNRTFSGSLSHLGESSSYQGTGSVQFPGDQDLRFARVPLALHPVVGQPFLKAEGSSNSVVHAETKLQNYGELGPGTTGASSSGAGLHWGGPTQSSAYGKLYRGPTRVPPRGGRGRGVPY
T6 sequence (Q16531 whole entry, species assumed): as the sequence (Q16531 whole entry partner) above

For the molecule `C=C(Cn1cc(CNc2cc(N3CCCC[C@H]3CCO)nc3c(CC)cnn23)ccc1=O)C(=O)N[C@@H]1CN(c2nc(Nc3cn(C)nc3OC)c3ncn(C)c3n2)C[C@H]1F` [Compound A1-8], the “Concentration of Effector Protein Ligand” value came out at 0.889 µM in test [1] (Buffer + Protein (EGFR T790M L858R), Time 0 h); 5.18 µM in test [1] (Buffer + Protein (EGFR T790M L858R), Time 2 h); 6.91 µM in test [1] (Buffer + Protein (EGFR T790M L858R), Time 8 h); 9.11 µM in test [1] (Buffer + Protein (EGFR T790M L858R), Time 24 h); 0.894 µM in test [1] (Buffer, Time 0 h); 4.06 µM in test [1] (Buffer, Time 2 h). The “Concentration of Effector Protein Ligand” value in test [1] (Buffer, Time 8 h) was 7.24 µM; in test [1] (Buffer, Time 24 h), 8.26 µM.
As to `C=C(CN(C(=O)NCc1ccc2c(c1)CN(C1CCC(=O)NC1=O)C2=O)c1ccc(C)c(Cl)c1)C(=O)N[C@@H]1CN(c2nc(Nc3cn(C)nc3OC)c3ncn(C)c3n2)C[C@H]1F` (some centres unmarked) [Compound I-41], the values for the GI50 in test [2] and in test [4] were 1.5 to 10 µM and over 10 µM, respectively. Also, in test [3], the EC50 was over 10 µM. In addition, the dissociation constant (Kd) in test [5] and in test [6] was over 2.5 µM each time. In addition, in test [7], the DC50 – broadly, the concentration at which degradation of the target reaches its halfway point – is over 2.5 µM.
For `C=C(COC(=O)N1CCN(c2nc(NCc3nc4cc(C)ccc4[nH]3)n3ncc(Br)c3n2)CC1)C(=O)N[C@@H]1CN(c2nc(Nc3cn(C)nc3OC)c3ncn(C)c3n2)C[C@H]1F` [II-184], in test [8], the DC50 is under 0.25 µM. Besides, the concentration for 50% growth inhibition (GI50) in test [2] and in test [4] was under 0.5 µM each time. In test [3], the EC50 was 0.25 to 5 µM. Moreover, the Kd in test [5] and in test [6] was 0.05 to 0.5 µM throughout.
